{"source": "paper PMC5678437", "about": "“A new antagonist for CCR4 attenuates allergic lung inflammation in a mouse model of asthma” (Scientific Reports, 2017)", "key": {"[1]": {"target": "T1, CCR7 (Homo sapiens, UniProt P32248)", "T1 construct": "expressed in transfected cells; host or cells: HEK293, pcDB-CCR7 plasmid made in the authors' laboratory", "T1 sequence (P32248 25-378)": "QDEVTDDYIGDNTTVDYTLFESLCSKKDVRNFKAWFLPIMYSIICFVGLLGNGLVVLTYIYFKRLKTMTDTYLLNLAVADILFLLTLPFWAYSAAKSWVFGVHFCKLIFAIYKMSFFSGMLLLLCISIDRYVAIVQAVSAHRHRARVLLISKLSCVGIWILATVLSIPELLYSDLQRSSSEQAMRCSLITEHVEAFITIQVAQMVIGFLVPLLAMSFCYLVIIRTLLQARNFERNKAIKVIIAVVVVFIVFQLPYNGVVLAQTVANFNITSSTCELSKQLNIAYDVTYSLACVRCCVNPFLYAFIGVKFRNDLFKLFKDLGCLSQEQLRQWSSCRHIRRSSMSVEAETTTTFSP", "assay": "Chemotaxis inhibition assay for receptor specificity, HEK293-CCR7", "format": "cell-based", "conditions": "0.2, 1, 5, 25 μM, 30 min pretreatment", "method": "(§1) HEK293 cells were transfected with different chemokine receptors. The corresponding chemokines of different receptors were placed in the lower chambers. The transfected cells were pretreated with different concentrations of Compound 8a or 1‰ DMSO for 30 min at a density of 1 × 10^6 cells/ml and added to the upper chambers, the final concentration of the compound is: 0.2 μM, 1 μM, 5 μM, and 25 μM, respectively."}, "[2]": {"test_system": "OVA-induced asthmatic mice", "assay": "Airway mucus production (PAS staining) in OVA-induced asthmatic mice", "format": "in vivo, BALB/c mice", "conditions": "compound 8a 0.2, 1, 5 mg; budesonide 5 mg; vs vehicle treated group", "method": "(§2) Male BALB/c 6 week old mice were purchased from the Experimental Animal Center of Zhejiang University. All mice were raised in a specific pathogen-free animal facility. All animal experiments were carried out according to the guidelines for the care and use of laboratory animals and were approved by the ethics committee of Zhejiang University and Peking University, China.\n(§3) Mice were sensitized and challenged with chicken egg OVA (sigma-Aldrich, St Louis, MO, USA) as described in details previously. Briefly, after sensitized by intraperitoneal injection of 100 μl (80 μg) OVA in 100 μl alum (Pierce, Rockford, IL, USA) on days 0 and 14, mice were exposure to 1% OVA aerosols for 40 min on days 24–26. Control mice were injected intraperitoneally with saline and exposed to saline aerosols.\nCompound 8a was dissolved in saline with DMSO (0.5%). Half an hour before each OVA challenge, the groups of mice treated with various doses of compound 8a (0.2, 1, 5 mg) inhaled aerosolized compound 8a for 45 min on days 24–26. Compound 8a aerosols were produced by using a Plexiglas chamber and ultrasonic nebulizer. […]\nAfter sacrificed, the lungs were fixed in formalin overnight. […] Inflammation was scored according to published guidelines. And PAS-stained goblet cells in airway epithelium were quantified as described previously."}, "[3]": {"test_system": "OVA-induced asthmatic mice", "assay": "BALF total cell and cell differential counts in OVA-induced asthmatic mice", "format": "in vivo, BALB/c mice", "conditions": "for total cells count in BALF: vs vehicle", "method": "as §2, §3\nCompound 8a was dissolved in saline with DMSO (0.5%). Half an hour before each OVA challenge, the groups of mice treated with various doses of compound 8a (0.2, 1, 5 mg) inhaled aerosolized compound 8a for 45 min on days 24–26. Compound 8a aerosols were produced by using a Plexiglas chamber and ultrasonic nebulizer. While the budesonide (BUD) group were administered with 5 mg budesonide, and the vehicle group were treated with compound-dissolved vehicle. The Saline was treated as the control.\nTwenty-four hours after the last exposure, collection of BALF and cell count was performed as previously described. Briefly, lavage was performed by instilling 0.4 ml PBS into lungs and with drawn to collect the cells three times. Total BALF cells were counted. After be centrifuged, the remaining cells was spun onto glass slides, and stained with Wright–Giemsa stain. Differential counts were evaluated by counting 400 total cells."}, "[4]": {"target": "T2, CCR6 (Homo sapiens, UniProt P51684)", "T2 construct": "expressed in transfected cells; host or cells: HEK293, pcDI-CCR6 plasmid made in the authors' laboratory", "T2 sequence (P51684 1-374)": "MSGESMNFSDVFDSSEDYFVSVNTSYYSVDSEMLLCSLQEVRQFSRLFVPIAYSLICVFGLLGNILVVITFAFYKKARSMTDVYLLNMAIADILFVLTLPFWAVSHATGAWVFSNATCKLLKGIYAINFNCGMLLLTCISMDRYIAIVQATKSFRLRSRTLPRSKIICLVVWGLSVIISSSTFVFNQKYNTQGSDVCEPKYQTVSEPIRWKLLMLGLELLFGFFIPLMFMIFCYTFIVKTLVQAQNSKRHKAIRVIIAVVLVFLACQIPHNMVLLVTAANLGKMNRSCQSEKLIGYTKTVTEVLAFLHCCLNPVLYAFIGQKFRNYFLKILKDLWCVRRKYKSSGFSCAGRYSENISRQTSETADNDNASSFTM", "assay": "Chemotaxis inhibition assay for receptor specificity, HEK293-CCR6", "format": "cell-based", "conditions": "0.2, 1, 5, 25 μM, 30 min pretreatment", "method": "as §1"}, "[5]": {"target": "T3, CXCR4 (Homo sapiens, UniProt P61073)", "T3 construct": "expressed in transfected cells; host or cells: HEK293; plasmid from Chinese National Human Genome Center", "T3 sequence (P61073 1-356 isoform P61073-2)": "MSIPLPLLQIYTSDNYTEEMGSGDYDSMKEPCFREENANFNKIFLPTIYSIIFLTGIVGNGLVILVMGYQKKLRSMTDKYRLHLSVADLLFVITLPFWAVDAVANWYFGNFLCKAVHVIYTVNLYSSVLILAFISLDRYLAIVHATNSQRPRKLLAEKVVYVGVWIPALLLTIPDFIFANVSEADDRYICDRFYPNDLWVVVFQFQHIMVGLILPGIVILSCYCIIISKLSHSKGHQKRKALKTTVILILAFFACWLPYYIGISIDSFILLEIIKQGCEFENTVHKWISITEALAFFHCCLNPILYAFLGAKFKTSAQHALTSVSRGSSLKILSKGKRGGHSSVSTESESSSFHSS", "assay": "Chemotaxis inhibition assay for receptor specificity, HEK293-CXCR4", "format": "cell-based", "conditions": "0.2, 1, 5, 25 μM, 30 min pretreatment", "method": "as §1"}, "[6]": {"conditions": "5 mg inhaled aerosol, compared with vehicle treated group"}, "[7]": {"conditions": "compound 8a 0.2, 1, 5 mg, budesonide 5 mg, inhaled aerosol"}}, "data": [{"smiles": "O=C(C1CCCCN1)N1CCN(c2nc(Cl)cc(NCc3ccc(Cl)cc3Cl)n2)CC1", "note": "(centres unmarked) [compound 8a, {4-[4-Chloro-6-(2,4-dichloro-benzylamino)-pyrimidin-2-yl]-piperazin-1-yl}-piperidin-2-yl-methanone]", "values": [{"measurement": "inhibition of chemotaxis of HEK293-CCR7 to its ligand", "setting": "[1]", "value": "few influence"}, {"measurement": "airway mucus production (PAS-stained cells)", "setting": "[2]", "value": "no difference"}, {"measurement": "total cells count in BALF", "setting": "[3]; 0.2 mg inhaled aerosol", "value": "marginal"}, {"measurement": "total cells count in BALF", "setting": "[3]; 1 mg inhaled aerosol", "value": "remarkably inhibitory effect"}, {"measurement": "absolute number of eosinophils in BALF", "setting": "[3]; [6]", "value": "significantly decreased"}, {"measurement": "absolute number of lymphocytes in BALF", "setting": "[3]; [6]", "value": "significantly decreased"}, {"measurement": "total cells count in BALF", "setting": "[3]; 5 mg inhaled aerosol", "value": "remarkably inhibitory effect"}, {"measurement": "number of macrophages in BALF", "setting": "[3]; [7]", "value": "neither compound 8a nor budesonide affect"}, {"measurement": "number of neutrophils in BALF", "setting": "[3]; [7]", "value": "neither compound 8a nor budesonide affect"}, {"measurement": "inhibition of chemotaxis of HEK293-CCR6 to its ligand", "setting": "[4]", "value": "few influence"}, {"measurement": "inhibition of chemotaxis of HEK293-CXCR4 to its ligand", "setting": "[5]", "value": "few influence"}]}]}
